{"source": "patent US8518953B2", "about": "“Aminopyrimidines useful as inhibitors of protein kinases” (Vertex Pharmaceuticals Incorporated, priority 2007, dated 2013)", "key": {"rats subjected to MCAO": {"test_system": "rats subjected to MCAO", "experiment": "Post Stroke Recovery MCAO Model: Gridwalk", "assay_type": "in vivo, rat", "conditions": "7 and 14 days after stroke", "from_the_text": "Adult male Wistar rats are pre-trained on a battery of behavioral tests including: tray reach, […], forelimb asymmetry (cylinder bracing), forelimb inhibition (swim test) (see below for detailed description of tests). Following pre-stroke behavioral assessment the rats receive surgery during which a stroke is induced. The rats are pseudo-randomly divided into 5 equal groups (n=12) ensuring an equal number of right and left strokes within each treatment group. The first group receives sham surgery with vehicle as treatment. Administration of the test compound and vehicle (dose, route, timing) is determined by the sponsor. The core body temperature is maintained at 37° C. (+/-1°). Following surgery all animals are behaviorally assessed 1, 7, and 14 d post-stroke. At the conclusion of behavioral assessment all rats undergo an MRI to determine infarct volume. […] Rectal temperature is monitored and maintained at 37 C+/-1° C. for the duration of the surgery and until the rat is awake and mobile (approximately 3 hr). […] Forelimb and hindlimb coordination are measured using an apparatus that consists of two Plexiglas panels 1 m long and 25 cm wide (5 mm thick) with holes drilled 1 cm apart along one long edge. […]"}, "GSK-3α/β pTYR": {"test_system": "GSK-3α/β pTYR", "experiment": "pTYR Biomarker Analysis in brains of MCAO rats (Western blot)", "assay_type": "in vivo, rat", "conditions": "all doses, at the termination of the study, compared to vehicle treated rats", "procedure": "RIPA consists of 0.5 ml 10% SDS, 2.5 ml 10% Sodium Deoxycholate, 0.5 ml NP40, and 46.5 ml PBS. […] 10 mL of lysis buffer (modified RIPA) is added to tissue (1 ml/½ brain) and homogenized on ice. The lysates are then centrifuged at 10000 rpm for 10 min at 4° C. The supernatant is then transferred to a new tube and kept on ice. The supernatant samples are respun at 10000 rpm for 10 min at 4° C. The supernatant is then transferred to a new tube and kept on ice. An aliquot of the supernatant is taken and the protein is measured with the Pierce BCA protein assay kit (cat#23225), using BSA standard curve (do a 1:25 dilution in PBS). The remaining supernatant is diluted to 1 ug/ul with Biorad Laemmli Sample buffer (cat#161-0737) with β-mercaptoethanol added. The samples are boiled for 5 min at 95° C. and spun in a microfuge for 1 minute. The samples are snap frozen on dry ice and stored at −20° C. 10 ug of protein/lane (10 uL) is then loaded and the Western blot is run according to Example 3. Inhibition of GSK-3α/β pTYR is determined by comparing the density of the protein band in samples obtained from animals treated with compound to samples from vehicle treated animals. […] Lysates were analyzed by Western blot (see Example 3) and probed for GSK-3α/β pTYR levels."}}, "data": [{"smiles": "Cc1nc(-c2ccccc2Cl)nc(Nc2n[nH]c3ncc(F)cc23)c1C", "note": "[Compound I-1, N-(2-(2-chlorophenyl)-5,6-dimethylpyrimidin-4-yl)-5-fluoro-1H-pyrazolo[3,4-b]pyridin-3-amine]", "values": [{"measurement": "deficit in gridwalk", "setting": "rats subjected to MCAO", "value": "significantly ameliorated this deficit"}, {"measurement": "GSK-3α/β pTYR signal in the brain", "setting": "GSK-3α/β pTYR", "value": "significant reduction in pTYR signal"}]}]}
